Source: patent US8247211B2, “Glycopeptide antibiotics” (American Cyanamid Company, priority 2001, dated 2012)
Converted amounts (≈) assume the structure as drawn.

Experiments:
Assay in all cases: In vitro antibacterial evaluation: minimum inhibitory concentration (MIC), broth dilution method
Assay type in all cases: cell-based
[1] = tested on: Enterococcus sp.; settings: 18 hours at 35° C.
Outline: (§1)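 MIC by broth dilution in Mueller-Hinton II medium following NCCLS M7-A2. Inoculum was 5×10^5 CFU/mL and antibiotic was tested over 64-0.06 μg/mL. Gram-positive panel included clinical isolates resistant to methicillin, penicillin and/or vancomycin.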

[2] = tested on: Escherichia coli; settings: 18 hours at 35° C.
Outline: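 An MIC is reported for each organism as the least concentration giving inhibition, using broth dilution over 64-0.06 μg/mL with a 5×10^5 CFU/mL inoculum.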

[3] = tested on: Staphylococcus sp.
Outline: as §1

[4] = tested on: Streptococcus sp.; settings: 18 hours at 35° C.
Outline: as §1

[5] = broth dilution, inoculum 5×10^5 CFU/mL

CC(c1ccccc1)C1NC(=O)CNC(=O)C(CO)NC(=O)C(C(O)C2CN(c3ncccn3)C(=N)N2C2OC(CO)C(O)C(O)C2O)NC(=O)C(C(O)C2CNC(=Nc3ncccn3)N2)NC(=O)C(Cc2ccc(OC3OC(CO)C(OC4OC5COC6(OC5C(O)C4O)C4CC5CC(C4)CC6C5)C(O)C3O)cc2)NC1=O (stereo not drawn) [Example 228, Di-N-(2-(pyrimidinyl)-cyclo[glycyl-β-methylphenylalanyl-O-[4-O-[4,6-O-(2-adamantylidene)hexopyranosyl]hexopyranosyl]tyrosyl-3-[2-iminoimidazolidin-4-yl]seryl-3-β-hexopyranosyl-2-iminoimidazolidin-4-yl]serylseryl]]
MIC Enterococcus avium (GC 4558) ([1]; Enterococcus avium (GC 4558)): 8 mg/L (≈ 5.05 µM)
MIC Enterococcus faecalis (ATCC 29212) ([1]; Enterococcus faecalis (ATCC 29212)): 32 mg/L (≈ 20.2 µM)
MIC Enterococcus faecalis (GC 2242) ([1]; Enterococcus faecalis (GC 2242)): 32 mg/L (≈ 20.2 µM)
MIC Enterococcus faecalis (GC 2691) ([1]; Enterococcus faecalis (GC 2691)): 32 mg/L (≈ 20.2 µM)
MIC Enterococcus faecalis (GC 3059) ([1]; Enterococcus faecalis (GC 3059)): 32 mg/L (≈ 20.2 µM)
MIC Enterococcus faecalis (GC 4552) ([1]; Enterococcus faecalis (GC 4552)): 32 mg/L (≈ 20.2 µM)
MIC Enterococcus faecalis (GC 4553) ([1]; Enterococcus faecalis (GC 4553)): 16 mg/L (≈ 10.1 µM)
MIC Enterococcus faecalis (GC 4554) ([1]; Enterococcus faecalis (GC 4554)): 32 mg/L (≈ 20.2 µM)
MIC Enterococcus faecalis (GC 6189) ([1]; Enterococcus faecalis (GC 6189)): 32 mg/L (≈ 20.2 µM)
MIC Enterococcus faecium (GC 2243) ([1]; Enterococcus faecium (GC 2243)): 16 mg/L (≈ 10.1 µM)
MIC Enterococcus faecium (GC 4556) ([1]; Enterococcus faecium (GC 4556)): 32 mg/L (≈ 20.2 µM)
MIC Enterococcus faecium (GC 4557) ([1]; Enterococcus faecium (GC 4557)): 16 mg/L (≈ 10.1 µM)
MIC Enterococcus avium (GC 4558) [1, 5]: 8 mg/L (≈ 5.05 µM)
MIC Enterococcus faecalis (ATCC 29212) [1, 5]: 32 mg/L (≈ 20.2 µM)
MIC Enterococcus faecalis (GC 2242) [1, 5]: 32 mg/L (≈ 20.2 µM)
MIC Enterococcus faecalis (GC 2691) [1, 5]: 32 mg/L (≈ 20.2 µM)
MIC Enterococcus faecalis (GC 3059) [1, 5]: 32 mg/L (≈ 20.2 µM)
MIC Enterococcus faecalis (GC 4552) [1, 5]: 32 mg/L (≈ 20.2 µM)
MIC Enterococcus faecalis (GC 4553) [1, 5]: 16 mg/L (≈ 10.1 µM)
MIC Enterococcus faecalis (GC 4554) [1, 5]: 32 mg/L (≈ 20.2 µM)
MIC Enterococcus faecalis (GC 6189) [1, 5]: 32 mg/L (≈ 20.2 µM)
MIC Enterococcus faecium (GC 2243) [1, 5]: 16 mg/L (≈ 10.1 µM)
MIC Enterococcus faecium (GC 4556) [1, 5]: 32 mg/L (≈ 20.2 µM)
MIC Enterococcus faecium (GC 4557) [1, 5]: 16 mg/L (≈ 10.1 µM)
MIC Escherichia coli (ATCC 25922) ([2]; Escherichia coli (ATCC 25922)): >64 mg/L
MIC Escherichia coli (GC 4559) ([2]; Escherichia coli (GC 4559)): >64 mg/L
MIC Escherichia coli (GC 4560) ([2]; Escherichia coli (GC 4560)): 16 mg/L (≈ 10.1 µM)
MIC Staphylococcus aureus (ATCC 29213) ([3]; strain ATCC 29213): 32 mg/L (≈ 20.2 µM)
MIC Staphylococcus aureus (GC 1131) ([3]; strain GC 1131): 32 mg/L (≈ 20.2 µM)
MIC Staphylococcus aureus (GC 3051) ([3]; strain GC 3051): 32 mg/L (≈ 20.2 µM)
MIC Staphylococcus aureus (GC 3053) ([3]; strain GC 3053): 32 mg/L (≈ 20.2 µM)
MIC Staphylococcus aureus (GC 4541) ([3]; strain GC 4541): 32 mg/L (≈ 20.2 µM)
MIC Staphylococcus aureus (GC 4542) ([3]; strain GC 4542): 32 mg/L (≈ 20.2 µM)
MIC Staphylococcus aureus-SMITH (GC 4543) ([3]; strain GC 4543): 32 mg/L (≈ 20.2 µM)
MIC Staphylococcus aureus (GC 4544) ([3]; strain GC 4544): 32 mg/L (≈ 20.2 µM)
MIC Staphylococcus aureus (GC 4545) ([3]; strain GC 4545): 32 mg/L (≈ 20.2 µM)
MIC Staphylococcus haemolyticus (GC 4546) ([3]; strain GC 4546): 16 mg/L (≈ 10.1 µM)
MIC Coagulase Negative Staphylococcus (GC 4547) ([3]; strain GC 4547): 16 mg/L (≈ 10.1 µM)
MIC Coagulase Negative Staphylococcus (GC 4548) ([3]; strain GC 4548): 16 mg/L (≈ 10.1 µM)
MIC Coagulase Negative Staphylococcus (GC 4549) ([3]; strain GC 4549): 16 mg/L (≈ 10.1 µM)
MIC Coagulase Negative Staphylococcus (GC 4551) ([3]; strain GC 4551): 16 mg/L (≈ 10.1 µM)
MIC Streptococcus agalactiae (GC 4564) ([4]; Streptococcus agalactiae (GC 4564)): 16 mg/L (≈ 10.1 µM)
MIC Streptococcus pneumoniae (ATCC 6301) ([4]; Streptococcus pneumoniae (ATCC 6301)): 8 mg/L (≈ 5.05 µM)
MIC Streptococcus pneumoniae (GC 1894) ([4]; Streptococcus pneumoniae (GC 1894)): 8 mg/L (≈ 5.05 µM)
MIC Streptococcus pneumoniae (GC 4565) ([4]; Streptococcus pneumoniae (GC 4565)): 8 mg/L (≈ 5.05 µM)
MIC Streptococcus pyogenes (GC 4563) ([4]; Streptococcus pyogenes (GC 4563)): 8 mg/L (≈ 5.05 µM)
MIC Streptococcus agalactiae (GC 4564) [4, 5]: 16 mg/L (≈ 10.1 µM)
MIC Streptococcus pneumoniae (ATCC 6301) [4, 5]: 8 mg/L (≈ 5.05 µM)
MIC Streptococcus pneumoniae (GC 1894) [4, 5]: 8 mg/L (≈ 5.05 µM)
MIC Streptococcus pneumoniae (GC 4565) [4, 5]: 8 mg/L (≈ 5.05 µM)
MIC Streptococcus pyogenes (GC 4563) [4, 5]: 8 mg/L (≈ 5.05 µM)
